Experimental data: patent US7795220B2, “Conformationally constrained parathyroid hormones with alpha-helix stabilizers” (The General Hospital Corporation, priority 2003, dated 2010)
Non-standard residues stand in square brackets, D forms with d. Residues, ends and D or L forms follow the SMILES beside them. hArg = N=C(N)NCCCC[C@H](N)C(=O)O; Ac5c = NC1(C(=O)O)CCCC1; Deg = CCC(N)(CC)C(=O)O; Aib = CC(C)(N)C(=O)O

Legend:
hP1R-delNt = molecular target: T1, hP1R-delNt (Homo sapiens, UniProt Q03431); assay: cAMP stimulation in LdelNt-2 cells; format: cell-based
T1 construct: expressed in transfected cells
T1 sequence (Q03431 with tags, fused parts or gaps limits assumed): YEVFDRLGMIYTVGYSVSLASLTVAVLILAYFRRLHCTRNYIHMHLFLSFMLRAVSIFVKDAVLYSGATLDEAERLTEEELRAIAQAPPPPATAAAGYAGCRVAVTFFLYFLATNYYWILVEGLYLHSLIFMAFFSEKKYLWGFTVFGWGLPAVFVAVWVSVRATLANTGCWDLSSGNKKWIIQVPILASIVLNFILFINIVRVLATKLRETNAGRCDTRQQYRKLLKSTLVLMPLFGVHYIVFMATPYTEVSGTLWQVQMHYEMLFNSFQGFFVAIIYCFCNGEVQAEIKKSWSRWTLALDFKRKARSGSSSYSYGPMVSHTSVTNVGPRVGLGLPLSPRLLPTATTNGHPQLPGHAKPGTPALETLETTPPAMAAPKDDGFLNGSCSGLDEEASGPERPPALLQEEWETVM
Text: (§1) Cell Culture. The cell line HKRK-B28 (Takasu, H., et al., J. Bone Miner. Res. 14:11-20 (1999)) was derived from the porcine kidney cell line, LLC-PK1 by stable transfection with plasmid DNA encoding a recombinant P1R chimera comprised of the opposum P1R from the N-terminus to the mid region of TM3 and the rat P1R from the mid region of TM3 to the C-terminus. The surface density of the P1R in these cells is ˜280,000 receptors per cell. The clonal cell line LdelNt-2 was derived from LLC-PK, cells via stable transfection with a plasmid encoding P1R-delNt, a recombinant human PTH-1 receptor construct in which most of the amino-terminal extracellular domain is deleted. These cells, as well as COS-7 cells and SaOS-2-B10 cells, were cultured at […] in T-75 flasks ([…]) in Dulbecco's modified Eagle's medium (DMEM) supplemented with fetal bovine serum (10%), penicillin G (20 units/ml), streptomycin sulfate (20 μg/ml) and amphotericin B (0.05 μg/ml) in a humidified atmosphere containing 5% CO2. Stock solutions of EGTA/trypsin and antibiotics were from GLBCO; fetal bovine serum was from Hyclone Laboratories (Logan, Utah). COS-7 cells sub-cultured in 24-well plates were transfected with plasmid DNA (200 ng per well) encoding the wild-type human P1R or truncated human P1R deleted for residues (24-181) (Shimizu, M., et al., J. Biol. Chem. 275:21836-21843 (2000)) that was purified by cesium chloride/ethidium bromide density gradient centrifugation, and FuGENE 6 transfection reagent (Roche Indianapolis Ind.) according to the manufacturer's recommended procedure. All cells, in 24-well plates, were treated with fresh media and shifted to 33° C. for 12 to 24 h prior to assay.
(§2) cAMP Stimulation. Stimulation of cells with peptide analogs was performed in 24-well plates. Cells were rinsed with 0.5 mL of binding buffer (50 mM Tris-HCl, 100 mM NaCl, 5 mM KCl, 2 mM CaCl2, 5% heat-inactivated horse serum, 0.5% fetal bovine serum, adjusted to pH 7.5 with HCl) and treated with 200 μL of cAMP assay buffer (Delbecco's modified Eagle's medium containing 2 mM 3-isobutyl-1-methylxanthine, 1 mg/mL bovine serum albumin, 35 mM Hepes-NaOH, pH 7.4) and 100 μL of binding buffer containing varying amounts of peptide analog (final volume=300 μL). The medium was removed after incubation for 30 to 60 minutes at room temperature, and the cells were frozen on dry ice, lysed with 0.5 mL 50 mM HCl, and refrozen ([…]). The cAMP content of the diluted lysate was determined by radioimmunoassay. The EC50 response values were calculated using nonlinear regression (see below).
(§3) Data Calculation. Calculations were performed using Microsoft® Excel. Nonlinear regression analyses of binding and cAMP dose-response data were performed using the four-parameter equation: yp=Min+[(Max−Min)/(1+(IC50/x)^slope)]. The Excel Solver function was utilized for parameter optimization, as described previously (Carter, P. H., et al., Endocrinology 140: 4972-4981 (1999); Bowen, W. P., and Jerman, J. C., Trends in Pharmacol. Sci. 16: 413-417 (1995)). Differences between paired data sets were statistically evaluated using a one-tailed Student's t-test, assuming unequal variances for the two sets.
Agonist activities of selected analogs in cells expressing P1R-delNt were examined. This PTH-1 receptor construct lacks most of the N domain, but nevertheless mediates full agonist responses to N-terminally modified PTH analogs, and thus enables the relative roles of the receptor's N and J domains to the ligand interaction process to be evaluated. The clonal cell line LdelNT-2 was used, which was derived from LLC-PK, cells by stable transfection with a plasmid encoding the human P1R-delNt construct.

[1] = tested on: P1R (recombinant P1R chimera) in HKRK-B28 cells; assay: cAMP stimulation in HKRK-B28 cells; format: cell-based, opposum/rat chimera
Text: as §1, §2, §3

[2] = molecular target: T2, P1R (recombinant P1R chimera) in HKRK-B28 cells (UniProt P25107+P25961, A364S/A509S/A517P/A524T/DEL519-521/E344G/G506A/H528S/I365V/I416T/I429T/K402R/K465R/L320I/M408V/N352H/S511P/S523T/T335G/T421L/T487S/V367L/V433I); assay: biochemical; format: binding, opposum/rat chimera
T2 construct: the opposum P1R from the N-terminus to the mid region of TM3; the rat P1R from the mid region of TM3 to the C-terminus; expressed in transfected cells
T2 sequence (P25107+P25961 fused with the stated changes): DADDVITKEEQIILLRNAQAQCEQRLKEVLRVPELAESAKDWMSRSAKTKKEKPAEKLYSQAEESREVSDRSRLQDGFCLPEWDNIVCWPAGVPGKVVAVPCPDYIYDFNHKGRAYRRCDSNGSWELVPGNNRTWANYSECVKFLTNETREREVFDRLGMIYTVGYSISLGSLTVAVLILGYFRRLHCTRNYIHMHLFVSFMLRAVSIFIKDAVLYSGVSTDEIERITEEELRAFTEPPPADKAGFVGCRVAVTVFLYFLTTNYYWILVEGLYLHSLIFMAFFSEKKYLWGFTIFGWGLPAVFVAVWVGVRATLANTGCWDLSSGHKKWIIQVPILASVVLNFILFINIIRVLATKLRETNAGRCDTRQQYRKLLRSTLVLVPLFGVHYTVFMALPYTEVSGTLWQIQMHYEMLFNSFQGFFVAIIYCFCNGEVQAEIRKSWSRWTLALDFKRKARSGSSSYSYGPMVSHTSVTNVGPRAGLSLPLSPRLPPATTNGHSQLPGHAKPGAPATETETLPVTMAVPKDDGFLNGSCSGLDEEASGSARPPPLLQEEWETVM
Text: as §1
Competition Binding. Binding reactions were performed with HKRK-B28 cells or in COS-7 cells in 24-well plates. The cells were rinsed with 0.5 mL of binding buffer, and then treated successively with 100 μL binding buffer, 100 μL of binding buffer containing various amounts of unlabeled competitor ligand, and 100 μL of binding buffer containing ca. 100,000 cpm of ^125I-[Aib^1,3,Nle^8,Gln^10,Har^11,Ala^12,Trp^14,Arg^19,Tyr^21]rPTH(1-21) (SEQ. ID. NO. 36) (ca. 26 fmol; final volume=300 μL). Incubations were 4 to 6 h at 4° C., at which time near equilibrium conditions were attained. Cells were then placed on ice, the binding medium was removed, and the monolayer was rinsed three times with 0.5 mL of cold binding buffer. The cells were subsequently lysed with 0.5 mL 5N NaOH and counted for radioactivity. For each tracer and in each experiment, the non-specific binding was determined as the radioactivity that bound in the presence of the same unlabeled peptide at a concentration of 1 μM, and was ˜1% of total radioactivity added for each tracer. The maximum specific binding (B0) was the total radioactivity bound in the absence of competing ligand, corrected for nonspecific binding, and for each tracer, ranged from 8% to 20% of the total radioactivity added. Nonlinear regression was used to calculate binding IC50 values (see below). Scatchard transformations of homologous competition binding data derived from studies with 26 fmol of ^125I-[Aib^1,3,Nle^8,Gln^10,Har^11,Ala^12,Trp^14, Arg^19,Tyr^21]rPTH(1-21) (SEQ. ID. NO. 36) were employed for estimations of apparent equilibrium dissociation constant (kDapps) and total number of ligand binding sites (Bmax), assuming a single class of binding sites and equal affinities of the iodinated and non iodinated ligand.
as §3, with “Differences between paired data sets were statistically evaluated using a one-tailed Student's t-test, assuming unequal variances for the two sets.” left out

P1R = assay: Antagonism of agonist-induced cAMP activity; format: cell-based; conditions: analog at 10^−5 M, agonist at 10^−9 M
Description: Polypeptides described herein can be screened for their agonistic or antagonistic properties using the cAMP accumulation assay. Cells expressing PTH-1 receptor on the cell surface are incubated with native PTH(1-84) (SEQ. ID. NO. 18) for 5-60 minutes at 37° C., in the presence of 2 mM IBMX (3-isobutyl-1-methyl-xanthine, Sigma, St. Louis, Mo.). Cyclic AMP accumulation is measured by specific radio-immunoassay. A compound that competes with native PTH(1-84) or PTH(1-34) (SEQ. ID. NO. 19) for binding to the PTH-1 receptor, and that inhibits the effect of native PTH(1-84) or PTH(1-34) on cAMP accumulation, is considered a competitive antagonist. Such a compound would be useful for treating hypercalcemia.
Ligands that function as antagonists can be useful for treating hyperparathyroidism. Analogs of [Ac5c^1, Aib^3, M]PTH(1-14)(parent) (SEQ. ID. NO. 15) containing N-terminal modifications predicted to dissociate signaling and binding affinity (e.g. desamino-1, Trp-2, Bpa-2, Arg-2, Deg-1,3).

**Q.** For `CC[C@H](C)[C@H](NC(=O)[C@H](CCC(=O)O)NC(=O)C(C)(C)NC(=O)[C@@H](NC(=O)C(C)(C)N)C(C)C)C(=O)N[C@@H](CCC(N)=O)C(=O)N[C@@H](CC(C)C)C(=O)N[C@@H](CCSC)C(=O)N[C@@H](Cc1c[nH]cn1)C(=O)N[C@@H](CCC(N)=O)C(=O)N[C@@H](CCCCNC(=N)N)C(=O)N[C@@H](C)C(=O)N[C@@H](CCCCN)C(=O)N[C@@H](Cc1c[nH]c2ccccc12)C(N)=O` [[Aib^1,3,M]PTH(1-14), [Aib^1,3,Gln^10,Har^11,Ala^12,Trp^14]PTH(1-14)NH2] (H-[Aib]V[Aib]EIQLMHQ[hArg]AKW-NH2), which EC50 (hP1R-delNt) is on record?
**A.** Its EC50 is 6.4 ± 1.6 nM.

**Q.** With `CC[C@H](C)[C@H](NC(=O)[C@H](CCC(=O)O)NC(=O)C(CC)(CC)NC(=O)[C@@H](NC(=O)C(N)(CC)CC)C(C)C)C(=O)N[C@@H](CCC(N)=O)C(=O)N[C@@H](CC(C)C)C(=O)N[C@@H](CCSC)C(=O)N[C@@H](Cc1c[nH]cn1)C(=O)N[C@@H](CCC(N)=O)C(=O)N[C@@H](CCCCNC(=N)N)C(=O)N[C@@H](C)C(=O)N[C@@H](CCCCN)C(=O)N[C@@H](Cc1c[nH]c2ccccc12)C(N)=O` [[Deg^1,3,M]PTH(1-14), [Deg^1,3,Gln^10,Har^11,Ala^12,Trp^14]PTH(1-14)NH2] (H-[Deg]V[Deg]EIQLMHQ[hArg]AKW-NH2) as the molecule, how does the “maximum cAMP response as percent of that attained by the parent peptide” value ([1]; HKRK-B28 cells) read?
**A.** Its value is 45%.

**Q.** And the “cAMP agonist activity / signaling potency (in words)” value [1]?
**A.** The value was “true partial agonist for cAMP formation”.

**Q.** And the “cAMP agonist activity / signaling potency (in words)” value ([1]; listed as [Deg^1,3,Gln^10,Har^11,Ala^12,Trp^14]pTH(1-14)NH2)?
**A.** Its value is “partial agonist response”.

**Q.** What about the “P1R binding affinity (in words)” value ([2]; in words) of the same molecule?
**A.** The value was “bound with adequate affinity”.

**Q.** And the “binding affinity higher than that of parent [M]PTH(1-14)” value ([2]; relative to parent [M]PTH(1-14))?
**A.** The value was 50 fold.

**Q.** And the EC50 (hP1R-delNt)?
**A.** The EC50 was 1400 ± 500 nM.

**Q.** What about the “agonist behavior (in words)” value (hP1R-delNt) of the same molecule?
**A.** The value was “partial agonist behavior”.

**Q.** And the “increase in cAMP accumulation (Emax) over basal” value (hP1R-delNt)?
**A.** Its value is 23 fold.

**Q.** For “[Ac5c^1,Trp^2,Aib^3, M]PTH(1-14) (H-[Ac5c]W[Aib]EIQLMHQ[hArg]AKW-NH2; SMILES CC[C@H](C)[C@H](NC(=O)[C@H](CCC(=O)O)NC(=O)C(C)(C)NC(=O)[C@H](Cc1c[nH]c2ccccc12)NC(=O)C1(N)CCCC1)C(=O)N[C@@H](CCC(N)=O)C(=O)N[C@@H](CC(C)C)C(=O)N[C@@H](CCSC)C(=O)N[C@@H](Cc1c[nH]cn1)C(=O)N[C@@H](CCC(N)=O)C(=O)N[C@@H](CCCCNC(=N)N)C(=O)N[C@@H](C)C(=O)N[C@@H](CCCCN)C(=O)N[C@@H](Cc1c[nH]c2ccccc12)C(N)=O)”, which “inhibition of the agonist activity of [Aib1,3,M]PTH(1-14)” value (P1R) is on record?
**A.** The value was 50%.

**Q.** With `CC[C@H](C)[C@H](NC(=O)[C@H](CCC(=O)O)NC(=O)C(C)(C)NC(=O)[C@@H](NC(=O)C1(N)CCCC1)C(C)C)C(=O)N[C@@H](CCC(N)=O)C(=O)N[C@@H](CC(C)C)C(=O)N[C@@H](CCSC)C(=O)N[C@@H](Cc1c[nH]cn1)C(=O)N[C@@H](CCC(N)=O)C(N)=O` [[Ac5c^1,Aib^3,M]PTH(1-10), [Ac5c^1,Aib^3,Gln^10]PTH(1-10)NH2] (H-[Ac5c]V[Aib]EIQLMHQ-NH2) as the molecule, how does the “increase in cAMP levels relative to basal” value ([1]; HKRK-B28 cells, peptide at 10 μM) read?
**A.** Its value is 33 fold.

**Q.** What about the EC50 ([1]; HKRK-B28 cells, read-out: cAMP EC50 estimated from dose-response analysis) of the same molecule?
**A.** The EC50 was about 3000 nM.

**Q.** What about the “cAMP agonist activity / signaling potency (in words)” value [1] of the same molecule?
**A.** The value was “clear cAMP response”.

**Q.** What about the “cAMP agonist activity / signaling potency (in words)” value ([1]; Aib^3, Gln^10]PTH(1-10)) of the same molecule?
**A.** The value was “fall cAMP agonist, albeit with micromolar potency”.

**Q.** What about the “inhibition of tracer radioligand binding” value ([2]; concentrations as high as 1×10^−4M, HKRK-B28 cells) of the same molecule?
**A.** Its value is “neither peptide inhibited the binding”.
